Data taken from article PMC3509539, “seco-Briarellinone and Briarellin S, Two New Eunicellin-Based Diterpenoids from the Panamanian Octocoral Briareum asbestinum” (Marine Drugs, 2012).
Several values for one entry are separate records, joined by “and”; a condition that tells them apart may be missing. Identical values can stand only once.

Assays:
[1] = tested on: peritoneal macrophages from C57Bl/6 mice; assay: Cytotoxicity testing, MTT assay; assay type: cell-based, mouse (C57Bl/6); details: inhibitory concentrations 5–20 μg/mL, macrophages after collection of the supernatant
Method: Figure 4 Inhibition of nitric oxide (NO) production induced by lipopolisacharides (LPS) in macrophages. (A) Peritoneal macrophages from C57Bl/6 mice were treated with different concentrations of compounds 1–3 (1, 2, 5, 10, or 20 μg/mL) 1 h before the stimulus with LPS (1 μg/mL). After 24 h of stimulus with LPS, supernatants were collected for NO determination. (B) Cell viabilities were assessed using 3-(4,5-dimethylthiazol-2-yl)-2,5-diphenyltetrazolium bromide (MTT) assay after collection of the supernatant. Results represent mean ± S.E.M. and are representative of two different experiments. * P < 0.005 compared with LPS stimulus alone. C, control; Comp, compound. To evaluate the cytotoxicity of compounds 1–3, we used the MTT (Methylthiazolyldiphenyl-tetrazolium bromide) assay. Cell supernatants were removed for NO determination and were added to each well, 100 μL of MTT at a concentration of 0.5 mg/mL dissolved in RPMI. The assay plate was incubated overnight at 37 °C in 5% of CO2 atmosphere. In this assay the MTT is reduced to formazan by the activity of NAD-dependent dehydrogenase of living cell mitochondria to form a purple product. […] The color was analyzed at 570 nm using a micro-ELISA plate reader. The percent of viable cells was calculated using the formula: % viability = (ODsample × 100%)/(ODcontrol). […]

[2] = tested on: NO production by thioglycolate elicited peritoneal macrophages from C57Bl/6 mice stimulated with LPS; assay: Inhibition of NO production induced by LPS in macrophages (Griess); assay type: cell-based, mouse (C57Bl/6); details: LPS 1 μg/mL; for IC50: Mus musculus, Peritoneal macrophage, primary murine macrophages, compound added 1 h before the stimulus, NO after 24 h
Text: The anti-inflammatory properties of diterpenes from natural sources have been described previously. However, anti-inflammatory activity of the briarellins family has not been evaluated before. The inhibition of NO production is frequently used as an indicator of anti-inflammatory activity. NO is produced by a family of enzymes called NO synthases (NOS) and it mediates many physiological processes. Inflammatory conditions lead to production of high levels of NO regulated by the inducible NOS (iNOS) enzyme. NO is produced by many cell types in vitro in response to several stimuli such as microbial products (e.g., bacterial lipopolisacharide (LPS)), cytokines, viral proteins, among others. We evaluated the production of NO by primary murine macrophages stimulated with LPS (1 μg/mL) in the presence or absence of different concentrations of compounds 1–3. […] The levels of NO found at higher concentrations (20 μg/mL) of compound 1 might be attributed to the non pyrogen-free conditions of the isolation and purification process of compounds. Possible contaminations with potential microbial products in the compounds preparations disguise the inhibitory effect expected at these concentrations. […] Further studies are necessary to find out if compound 3 is able to inhibit other signaling pathways leading to the production of inflammatory mediators different than NO.
Figure 4 Inhibition of nitric oxide (NO) production induced by lipopolisacharides (LPS) in macrophages. […] (B) Cell viabilities were assessed using 3-(4,5-dimethylthiazol-2-yl)-2,5-diphenyltetrazolium bromide (MTT) assay after collection of the supernatant. […]
To determine the anti-inflammatory capacity of compounds 1–3, thioglycolate elicited macrophages from C57Bl/6 mice were used. […] The concentration of NO was measured using the Griess Reagent System from Promega. […]
Data are presented as mean ± S.E.M. Results were analyzed using a statistical software package (GraphPad Prism 5). […]

Row | SMILES | Cell viability (MTT) [1] | IC50 [2] | Effect on the production of NO induced by LPS in macrophages ([2]; 1, 2, 5, 10 or 20 μg/mL, 24 h)
1 | CC(=O)CC1OC2C3C(CC(=O)C(C)(O)C13)C(C)COC2(C)C=CC=O (centres unmarked) [compound 1, seco-Briarellinone] | do not interfere with the cell viability | 1.71 µg/mL and 4.7 µM | –
2 | C=C1CC2OC3C4C(CC(=O)C(C)(O)C24)C(C)COC3(C)C(OC(=O)CCCCCCC)CC1O (centres unmarked) [compound 2, Briarellin S] | do not interfere with the cell viability | 10 µg/mL and 20.4 µM | –
3 | CC(=O)CC1OC2[C@@H]3C(C[C@H](C)[C@H](OC(C)=O)[C@H]13)[C@H](C)CO[C@]2(C)/C=C/C=O (some centres unmarked) [compound 3, seco-asbestinin] | – | – | did not show any significant effect
